The ΔTm is the change in melting temperature against a reference sample.

SMILES strings stand for the structures.

This passage reports ΔTm, LogK and binding results from publication PMC9693123 (2022).

Assay [1] concerns Tel12 (DNA, G4) TAGGGTTAGGGT
The assay can be described thus: UV melting at 295 nm. Conditions: KCl 0.1 M; NaCacodylate 2.5 mM, pH 7.0; ligand 1.75 × 10^-5 M, Tel12 1.87 × 10^-5 M.

In assay [2] the test system is Tel23 (DNA, G4) TAGGGTTAGGGTTAGGGTTAGGG
Briefly: UV melting at 295 nm. Conditions: KCl 0.1 M; NaCacodylate 2.5 mM, pH 7.0; ligand 1.40 × 10^-5 M, Tel23 1.38 × 10^-5 M.

Assay [3] deals with Tel12 (DNA, G4) TAGGGTTAGGGT
Briefly: UV-vis titration, HypSpec2014 fit. Conditions: KCl 0.1 M, NaCacodylate 2.5 mM, pH 7.0, 25 °C.

In assay [4] the test system is Tel23 (DNA, G4) TAGGGTTAGGGTTAGGGTTAGGG
Briefly: UV-vis titration, HypSpec2014 fit. To be noted: KCl 0.1 M; NaCacodylate 2.5 mM, pH 7.0, 25 °C.

In assay [5] the test system is Tel12 (DNA, G4) TAGGGTTAGGGT
The assay can be described thus: X-ray crystallography. Conditions: K+ in channel.

Consider `COc1ccc2c(CCCCCc3ccncc3)c3[n+](cc2c1OC)CCc1cc2c(cc1-3)OCO2`, for which the ΔTm in assay [1] came to 15.0 ± 1.4 °C; in assay [2], 5.1 ± 1.1 °C. Besides, the figures for the LogK in assay [3] and in assay [4] were 7.2 ± 0.2 and 5.6 ± 0.2, respectively.
`COc1ccc2c(CCCCc3ccncc3)c3[n+](cc2c1OC)CCc1cc2c(cc1-3)OCO2`: the figures for the thermal shift (ΔTm) in assay [1] and in assay [2] were 8.7 ± 1.5 °C and 5.9 ± 1.0 °C, respectively. For the same compound, the binding result in assay [5] (0.05 M KCacodylate, 0.1 M Li2SO4, pH 6.5, 20% v/v PEG400) is listed as “yes”. Further, the LogK in assay [3] was found to be 7.0 ± 0.2; in assay [4] it was 5.2 ± 0.2.
Regarding `COc1ccc2c(CCCc3ccncc3)c3[n+](cc2c1OC)CCc1cc2c(cc1-3)OCO2`, the ΔTm in assay [1] worked out at 16.7 ± 1.3 °C; in assay [2], 2.3 ± 0.6 °C. Also, the figures for the LogK in assay [3] and in assay [4] were 6.6 ± 0.2 and 5.8 ± 0.2, respectively.
As for `COc1ccc2c(CCc3ccncc3)c3[n+](cc2c1OC)CCc1cc2c(cc1-3)OCO2`, the ΔTm in assay [1] amounted to 9.7 ± 1.8 °C; in assay [2], 4.1 ± 0.8 °C. In addition, the binding result in assay [5] (0.1 M NaI in crystallizing solution, 0.05 M NaCacodylate pH 6.5, 35% v/v MPD) is recorded as “yes”. Further, the LogK in assay [3] is 6.1 ± 0.2; in assay [4] it was 4.0 ± 0.3.
For the compound `COc1ccc2c(Cc3ccncc3)c3[n+](cc2c1OC)CCc1cc2c(cc1-3)OCO2`, the thermal shift (ΔTm) worked out at 14.4 ± 1.5 °C in assay [1] and 4.1 ± 0.4 °C in assay [2]. The LogK in assay [3] (1:1 step, further 1:2 ligand:G4 adduct also fitted) came to 6.0 ± 0.2; in assay [4], 4.4 ± 0.2.
